Experimental data reported in patent US8735322B2, “Herbicides” (Syngenta Limited, priority 2008, dated 2014).

Columns and labels:
[1] = tested on: Alopecurus myosuroides (ALOMY); assay: Example A pre-emergence herbicidal activity, glasshouse pot test; type: in vivo; details: 480 h, rate 500 g/ha, evaluated 20 days later, 100=total damage to plant, 0=no damage to plant
Procedure: (§1) Seeds of a variety of test species were sown in standard soil in pots. After cultivation for one day (pre-emergence) or after 10 days cultivation (post-emergence) under controlled conditions in a glasshouse, the plants were sprayed with an aqueous spray solution derived from the formulation of the technical active ingredient in 0.6 ml acetone and 45 ml formulation solution containing 10.6% Emulsogen EL (Registry number 61791-12-6), 42.2% N-methylpyrrolidone, 42.2% dipropylene glycol monomethyl ether (Registry number 34590-94-8) and 0.2% X-77 (Registry number 11097-66-8). The test plants were then grown in a greenhouse under optimum conditions until, 15 days later for post-emergence and 20 days for pre-emergence, the test was evaluated (100=total damage to plant; 0=no damage to plant). Alopecurus myosuroides (ALOMY), Avena fatua (AVEFA), Lolium perenne (LOLPE), Setaria faberi (SETFA), Digitaria sanguinalis (DIGSA), Echinochloa crus-galli (ECHCG) Pre-Emergence Activity

Avena fatua (AVEFA) [2] = assay: as above; type: in vivo; details: 480 h, rate 500 g/ha, evaluated 20 days later, 100=total damage to plant, 0=no damage to plant
Procedure: as §1

[3] = tested on: Digitaria sanguinalis (DIGSA); assay: as above; type: in vivo; details: 480 h, rate 500 g/ha, evaluated 20 days later, 100=total damage to plant, 0=no damage to plant
Procedure: as §1

[4] = tested on: Echinochloa crus-galli (ECHCG); assay: as above; type: in vivo; details: 480 h, rate 500 g/ha, evaluated 20 days later, 100=total damage to plant, 0=no damage to plant
Procedure: as §1

Lolium perenne (LOLPE) [5] = assay: as above; type: in vivo; details: 480 h, rate 500 g/ha, evaluated 20 days later, 100=total damage to plant, 0=no damage to plant
Procedure: as §1

Setaria faberi (SETFA) [6] = assay: as above; type: in vivo; details: 480 h, rate 500 g/ha, evaluated 20 days later, 100=total damage to plant, 0=no damage to plant
Procedure: as §1

[7] = tested on: Alopecurus myosuroides (ALOMY); assay: Example A post-emergence herbicidal activity, glasshouse pot test; type: in vivo; details: 360 h, rate 500 g/ha, evaluated 15 days after spraying, read-out: herbicidal damage ALOMY (100=total damage to plant; 0=no damage to plant)
Procedure: as §1, with “Post Emergency” for “Pre-Emergence”

Avena fatua (AVEFA) [8] = assay: as above; type: in vivo; details: 360 h, rate 500 g/ha, evaluated 15 days after spraying, read-out: herbicidal damage AVEFA (100=total damage to plant; 0=no damage to plant)
Procedure: as §1, with “Post Emergency” for “Pre-Emergence”

[9] = tested on: Digitaria sanguinalis (DIGSA); assay: as above; type: in vivo; details: 360 h, rate 500 g/ha, evaluated 15 days after spraying, read-out: herbicidal damage DIGSA (100=total damage to plant; 0=no damage to plant)
Procedure: as §1, with “Post Emergency” for “Pre-Emergence”

[10] = tested on: Echinochloa crus-galli (ECHCG); assay: as above; type: in vivo; details: 360 h, rate 500 g/ha, evaluated 15 days after spraying, read-out: herbicidal damage ECHCG (100=total damage to plant; 0=no damage to plant)
Procedure: as §1, with “Post Emergency” for “Pre-Emergence”

Lolium perenne (LOLPE) [11] = assay: as above; type: in vivo; details: 360 h, rate 500 g/ha, evaluated 15 days after spraying, read-out: herbicidal damage LOLPE (100=total damage to plant; 0=no damage to plant)
Procedure: as §1, with “Post Emergency” for “Pre-Emergence”

Setaria faberi (SETFA) [12] = assay: as above; type: in vivo; details: 360 h, rate 500 g/ha, evaluated 15 days after spraying, read-out: herbicidal damage SETFA (100=total damage to plant; 0=no damage to plant)
Procedure: as §1, with “Post Emergency” for “Pre-Emergence”

**Q.** With `Cc1cc(C)c(C2=C(O)CC(CC3CCOC3)CC2=O)c(C)c1` (centres unmarked) [Compound A-1, 2-(2,4,6-trimethylphenyl)-5-(tetrahydrofuran-3-ylmethyl)cyclohexane-1,3-dione] as the compound, how does the pest or weed control at 500 g/ha [1] read?
**A.** 70%

**Q.** What about the pest or weed control at 500 g/ha (Avena fatua (AVEFA) [2]) of the same compound?
**A.** 40%

**Q.** And the pest or weed control at 500 g/ha [3]?
**A.** 100%

**Q.** And the pest or weed control at 500 g/ha [4]?
**A.** 50%

**Q.** And the pest or weed control at 500 g/ha (Lolium perenne (LOLPE) [5])?
**A.** 80%

**Q.** And the pest or weed control at 500 g/ha (Setaria faberi (SETFA) [6])?
**A.** 90%

**Q.** What about the pest or weed control at 500 g/ha [7] of the same compound?
**A.** 70%

**Q.** And the pest or weed control at 500 g/ha (Avena fatua (AVEFA) [8])?
**A.** 80%

**Q.** What about the pest or weed control at 500 g/ha [9] of the same compound?
**A.** 100%

**Q.** And the pest or weed control at 500 g/ha [10]?
**A.** 90%

**Q.** What about the pest or weed control at 500 g/ha (Lolium perenne (LOLPE) [11]) of the same compound?
**A.** 70%

**Q.** And the pest or weed control at 500 g/ha (Setaria faberi (SETFA) [12])?
**A.** 100%

**Q.** And the melting point?
**A.** 62 to 64 °C

**Q.** Which pest or weed control at 500 g/ha [1] does the source give for `Cc1cc(C)c(C2=C(OC(=O)C(C)(C)C)CC(CC3CCOC3)CC2=O)c(C)c1` (centres unmarked) [Compound B-1, 2,2-dimethylpropionic acid 3-oxo-5-(tetrahydrofuran-3-ylmethyl)-2-(2,4,6-trimethylphenyl)cyclohex-1-enyl Ester] here?
**A.** 90%

**Q.** And the pest or weed control at 500 g/ha (Avena fatua (AVEFA) [2])?
**A.** 50%

**Q.** And the pest or weed control at 500 g/ha [3]?
**A.** 100%

**Q.** What about the pest or weed control at 500 g/ha [4] of the same compound?
**A.** 100%

**Q.** And the pest or weed control at 500 g/ha (Lolium perenne (LOLPE) [5])?
**A.** 90%

**Q.** What about the pest or weed control at 500 g/ha (Setaria faberi (SETFA) [6]) of the same compound?
**A.** 80%

**Q.** What about the pest or weed control at 500 g/ha [7] of the same compound?
**A.** 50%

**Q.** What about the pest or weed control at 500 g/ha (Avena fatua (AVEFA) [8]) of the same compound?
**A.** 0%

**Q.** What about the pest or weed control at 500 g/ha [9] of the same compound?
**A.** 90%

**Q.** And the pest or weed control at 500 g/ha [10]?
**A.** 70%

**Q.** What about the pest or weed control at 500 g/ha (Lolium perenne (LOLPE) [11]) of the same compound?
**A.** 60%

**Q.** What about the pest or weed control at 500 g/ha (Setaria faberi (SETFA) [12]) of the same compound?
**A.** 80%

**Q.** And the melting point?
**A.** 108 to 110 °C
